Publication PMC7376604 (Cell reports, 2020)

Experiments:
shrews (Suncus murinus) = experiment: Food intake and body weight; type: in vivo; settings: shrew, albiglutide 0.5 and 5 mg/kg i.p.
[1] = target: human GLP-1 receptor (GLP-1R) (human) (UniProt P43220)
Chain of UniProt P43220 (P43220 24-463): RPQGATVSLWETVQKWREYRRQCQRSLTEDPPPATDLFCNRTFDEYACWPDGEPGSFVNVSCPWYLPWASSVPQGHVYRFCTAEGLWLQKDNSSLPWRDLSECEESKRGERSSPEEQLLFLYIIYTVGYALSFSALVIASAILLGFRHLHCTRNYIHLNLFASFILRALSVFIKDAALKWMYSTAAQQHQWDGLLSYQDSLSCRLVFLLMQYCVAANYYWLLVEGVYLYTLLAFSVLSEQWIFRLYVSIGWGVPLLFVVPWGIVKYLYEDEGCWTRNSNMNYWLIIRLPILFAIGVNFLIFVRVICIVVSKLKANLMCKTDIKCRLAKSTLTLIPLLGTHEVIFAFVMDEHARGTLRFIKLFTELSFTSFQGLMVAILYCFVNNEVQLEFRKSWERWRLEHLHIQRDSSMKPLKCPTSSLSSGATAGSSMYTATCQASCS

Substance | anorexia and body-weight loss (shrews (Suncus murinus)) | EC50 of agonism at the GLP-1R [1]
albiglutide | did not cause anorexia and body-weight loss | –
HC-Cbi-Ex4 (complex) | – | 3 nM
